Source: patent publication US20250332139A1, “PS[…] AND THEIR USE FOR TREATING […] AND NE[…] DISORDERS” (Transcend Therapeutics, Inc., priority 2021, published 2025)

Assays:
[1] = molecular target: T1, serotonin transporter (SERT) (Rattus norvegicus, UniProt P31652); experiment: Competitive radioligand binding, [3H]citalopram, rat brain lysates
T1 construct: from tissue; synaptosomes for uptake and release
Description: Radioligands used were: [^3H] Citalopram (PerkinElmer NET1039250UC); [^3H] Nisoxetine (PerkinElmer NET1084250UC); [^3H] WIN35428 (PerkinElmer NET1033250UC). […] Rat brains were dissected and tissue was homogenized in cold lysis buffer, centrifged at 100×g for 2 min and the supernatant was placed in a fresh tube. Supernatant was centrifuged at 13,000×g for 10 min at 4° C. to re-pellet the cell lysate. The pellet was resuspended in fresh wash buffer (50 mM Tris-HCl; 5 mM MgCl2; 5 mM EDTA) and centrifuged a third time. The pellet was then resuspended in wash buffer containing 10% sucrose as a cryoprotectant, divided into aliquots (0.3 mL) and stored at −80° C. A sample of the homogenate was analyzed for protein content using the SIGMA® BCA assay. On the day of the assay, the membrane preparation was thawed, and the pellet resuspended in final assay buffer. […] To each well was added 150 μL membranes, 50 μL of non-specific compound or buffer and 50 μL radioligand solution in buffer. […] Ki was subsequently calculated using the Cheng-Prusoff equation.

168 GPCRs [2] = molecular target: 168 GPCRs (Homo sapiens, UniProt P21918); experiment: β-arrestin GPCR screen (PathHunter/GPCRmax), antagonist mode; conditions: DRD5; Antagonist; 1 uM
168 GPCRs (Homo sapiens, UniProt P21918), sequence (P21918 whole entry): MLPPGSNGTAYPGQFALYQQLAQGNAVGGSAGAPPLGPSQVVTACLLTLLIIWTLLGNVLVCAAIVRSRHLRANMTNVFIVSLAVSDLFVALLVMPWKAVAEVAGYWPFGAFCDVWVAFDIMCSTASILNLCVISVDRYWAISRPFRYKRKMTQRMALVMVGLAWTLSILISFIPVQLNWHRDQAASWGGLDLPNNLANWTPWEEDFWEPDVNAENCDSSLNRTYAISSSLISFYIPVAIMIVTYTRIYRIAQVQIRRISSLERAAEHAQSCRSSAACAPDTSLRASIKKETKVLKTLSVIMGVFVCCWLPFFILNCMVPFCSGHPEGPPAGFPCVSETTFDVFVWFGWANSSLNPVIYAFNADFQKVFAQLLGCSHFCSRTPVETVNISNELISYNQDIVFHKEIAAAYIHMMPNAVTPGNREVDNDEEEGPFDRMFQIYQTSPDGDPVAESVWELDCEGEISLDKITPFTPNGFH

168 GPCRs [3] = molecular target: 168 GPCRs (Homo sapiens, UniProt P43115); experiment: as above
168 GPCRs (Homo sapiens, UniProt P43115), sequence (P43115 whole entry): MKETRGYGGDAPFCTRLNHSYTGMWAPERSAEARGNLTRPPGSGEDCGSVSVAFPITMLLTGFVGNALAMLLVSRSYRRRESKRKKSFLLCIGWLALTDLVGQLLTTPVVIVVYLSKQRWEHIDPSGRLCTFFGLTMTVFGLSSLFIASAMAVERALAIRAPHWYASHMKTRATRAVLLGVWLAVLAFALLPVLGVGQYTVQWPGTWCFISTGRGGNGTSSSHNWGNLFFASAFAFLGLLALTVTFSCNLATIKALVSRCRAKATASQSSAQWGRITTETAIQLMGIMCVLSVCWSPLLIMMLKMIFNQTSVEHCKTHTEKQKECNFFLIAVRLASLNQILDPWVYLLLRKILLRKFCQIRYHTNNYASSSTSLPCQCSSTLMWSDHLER

168 GPCRs [4] = molecular target: 168 GPCRs (Homo sapiens, UniProt Q9NSD7); experiment: as above; conditions: GPCR RXFP3; Antagonist mode; 10 uM
168 GPCRs (Homo sapiens, UniProt Q9NSD7), sequence (Q9NSD7 whole entry): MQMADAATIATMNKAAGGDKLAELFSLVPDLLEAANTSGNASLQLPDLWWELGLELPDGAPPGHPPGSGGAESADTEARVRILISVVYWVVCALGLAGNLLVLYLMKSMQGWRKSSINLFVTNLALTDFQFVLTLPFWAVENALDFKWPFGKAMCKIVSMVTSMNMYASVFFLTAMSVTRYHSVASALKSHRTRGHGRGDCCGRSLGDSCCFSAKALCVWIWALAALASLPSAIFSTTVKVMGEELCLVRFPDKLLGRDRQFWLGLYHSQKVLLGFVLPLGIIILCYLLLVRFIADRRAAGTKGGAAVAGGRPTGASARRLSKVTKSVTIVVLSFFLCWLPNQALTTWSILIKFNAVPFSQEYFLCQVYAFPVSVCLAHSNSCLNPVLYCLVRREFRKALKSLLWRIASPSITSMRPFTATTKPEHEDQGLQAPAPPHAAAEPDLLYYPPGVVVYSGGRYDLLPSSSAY

168 GPCRs [5] = molecular target: 168 GPCRs (Homo sapiens, UniProt Q8TCW9); experiment: as above; conditions: PROKR1; Antagonist; 1 uM
168 GPCRs (Homo sapiens, UniProt Q8TCW9), sequence (Q8TCW9 whole entry): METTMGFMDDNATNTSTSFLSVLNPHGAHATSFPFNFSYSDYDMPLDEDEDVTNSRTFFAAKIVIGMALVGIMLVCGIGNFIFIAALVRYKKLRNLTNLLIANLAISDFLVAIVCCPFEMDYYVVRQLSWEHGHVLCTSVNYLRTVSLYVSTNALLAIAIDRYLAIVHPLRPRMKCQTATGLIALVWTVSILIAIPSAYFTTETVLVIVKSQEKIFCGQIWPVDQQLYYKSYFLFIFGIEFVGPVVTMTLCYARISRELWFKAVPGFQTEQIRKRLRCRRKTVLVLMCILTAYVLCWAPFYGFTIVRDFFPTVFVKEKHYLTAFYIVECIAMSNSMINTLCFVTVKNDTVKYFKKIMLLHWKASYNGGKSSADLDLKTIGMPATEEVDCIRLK

168 GPCRs [6] = molecular target: 168 GPCRs (Homo sapiens, UniProt P30988); experiment: as above; conditions: CALCR-RAMP3, Antagonist
168 GPCRs (Homo sapiens, UniProt P30988), sequence (P30988 25-474): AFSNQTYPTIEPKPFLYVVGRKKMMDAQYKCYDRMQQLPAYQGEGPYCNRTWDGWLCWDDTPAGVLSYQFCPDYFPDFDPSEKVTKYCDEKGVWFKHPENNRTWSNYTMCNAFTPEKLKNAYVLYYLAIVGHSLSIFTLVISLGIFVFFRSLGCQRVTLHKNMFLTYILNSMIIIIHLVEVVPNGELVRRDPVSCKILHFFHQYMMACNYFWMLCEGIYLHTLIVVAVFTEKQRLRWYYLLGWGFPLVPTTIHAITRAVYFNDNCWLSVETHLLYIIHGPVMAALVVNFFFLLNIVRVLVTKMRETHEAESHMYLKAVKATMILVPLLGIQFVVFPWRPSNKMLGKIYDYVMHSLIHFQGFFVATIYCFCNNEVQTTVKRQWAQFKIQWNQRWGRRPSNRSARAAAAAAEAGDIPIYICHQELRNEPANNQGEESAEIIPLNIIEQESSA

168 GPCRs [7] = molecular target: 168 GPCRs (Homo sapiens, UniProt P25090); experiment: as above; conditions: GPCR FPRL1; Antagonist mode; 10 uM
168 GPCRs (Homo sapiens, UniProt P25090), sequence (P25090 whole entry): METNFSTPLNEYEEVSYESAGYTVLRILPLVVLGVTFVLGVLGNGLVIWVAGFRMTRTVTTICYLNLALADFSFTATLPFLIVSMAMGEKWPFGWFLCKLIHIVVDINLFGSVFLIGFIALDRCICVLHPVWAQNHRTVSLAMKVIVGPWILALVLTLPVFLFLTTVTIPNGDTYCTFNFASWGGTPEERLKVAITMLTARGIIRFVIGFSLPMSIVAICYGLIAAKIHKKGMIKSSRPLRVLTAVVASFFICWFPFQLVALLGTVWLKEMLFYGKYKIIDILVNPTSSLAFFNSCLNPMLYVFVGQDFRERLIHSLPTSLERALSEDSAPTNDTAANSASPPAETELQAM

168 GPCRs [8] = molecular target: 168 GPCRs (Homo sapiens, UniProt P41231); experiment: as above; conditions: GPCR P2RY2; Antagonist mode; 10 uM
168 GPCRs (Homo sapiens, UniProt P41231), sequence (P41231 whole entry): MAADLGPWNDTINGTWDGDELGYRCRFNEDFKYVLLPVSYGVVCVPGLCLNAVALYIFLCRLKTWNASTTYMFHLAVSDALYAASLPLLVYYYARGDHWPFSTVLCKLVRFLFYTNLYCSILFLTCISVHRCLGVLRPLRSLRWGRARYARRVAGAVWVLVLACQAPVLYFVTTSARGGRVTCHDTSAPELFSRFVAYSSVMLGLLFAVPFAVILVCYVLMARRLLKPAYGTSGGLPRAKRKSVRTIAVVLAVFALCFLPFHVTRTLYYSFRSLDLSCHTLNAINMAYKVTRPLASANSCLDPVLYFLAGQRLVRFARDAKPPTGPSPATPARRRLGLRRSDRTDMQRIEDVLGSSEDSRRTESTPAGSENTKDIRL

168 GPCRs [9] = molecular target: 168 GPCRs (Homo sapiens, UniProt P35367); experiment: as above; conditions: GPCR HRH1; Antagonist mode; 10 uM
168 GPCRs (Homo sapiens, UniProt P35367), sequence (P35367 whole entry): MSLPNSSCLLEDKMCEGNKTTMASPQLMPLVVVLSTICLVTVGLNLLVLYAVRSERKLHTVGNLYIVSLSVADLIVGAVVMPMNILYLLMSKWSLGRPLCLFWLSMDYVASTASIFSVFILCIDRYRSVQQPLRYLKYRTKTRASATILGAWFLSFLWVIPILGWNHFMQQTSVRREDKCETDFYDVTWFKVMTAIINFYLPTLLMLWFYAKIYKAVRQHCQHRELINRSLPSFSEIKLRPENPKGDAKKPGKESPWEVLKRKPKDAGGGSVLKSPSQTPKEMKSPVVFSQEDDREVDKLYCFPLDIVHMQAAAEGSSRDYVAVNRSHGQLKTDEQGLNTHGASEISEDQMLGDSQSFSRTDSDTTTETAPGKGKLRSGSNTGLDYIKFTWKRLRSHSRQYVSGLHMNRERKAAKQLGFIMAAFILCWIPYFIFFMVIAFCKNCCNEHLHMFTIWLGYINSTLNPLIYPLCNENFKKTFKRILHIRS

168 GPCRs [10] = molecular target: 168 GPCRs (Homo sapiens, UniProt P55085); experiment: as above; conditions: GPCR F2RL1; Antagonist mode; 10 uM
168 GPCRs (Homo sapiens, UniProt P55085), sequence (P55085 26-397): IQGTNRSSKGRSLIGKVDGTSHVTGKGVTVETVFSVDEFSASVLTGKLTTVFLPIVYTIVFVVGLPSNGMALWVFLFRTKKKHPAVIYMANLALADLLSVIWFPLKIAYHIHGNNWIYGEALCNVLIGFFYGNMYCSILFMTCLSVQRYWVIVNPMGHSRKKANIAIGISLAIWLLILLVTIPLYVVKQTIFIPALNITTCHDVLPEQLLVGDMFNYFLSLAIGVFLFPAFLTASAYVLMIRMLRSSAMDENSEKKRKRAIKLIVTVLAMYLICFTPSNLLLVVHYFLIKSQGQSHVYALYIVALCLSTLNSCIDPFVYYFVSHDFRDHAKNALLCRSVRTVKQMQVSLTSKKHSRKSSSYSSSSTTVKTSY

168 GPCRs [11] = molecular target: 168 GPCRs (Homo sapiens, UniProt Q9UBY5); experiment: as above; conditions: EDG7; Antagonist; 1 uM
168 GPCRs (Homo sapiens, UniProt Q9UBY5), sequence (Q9UBY5 whole entry): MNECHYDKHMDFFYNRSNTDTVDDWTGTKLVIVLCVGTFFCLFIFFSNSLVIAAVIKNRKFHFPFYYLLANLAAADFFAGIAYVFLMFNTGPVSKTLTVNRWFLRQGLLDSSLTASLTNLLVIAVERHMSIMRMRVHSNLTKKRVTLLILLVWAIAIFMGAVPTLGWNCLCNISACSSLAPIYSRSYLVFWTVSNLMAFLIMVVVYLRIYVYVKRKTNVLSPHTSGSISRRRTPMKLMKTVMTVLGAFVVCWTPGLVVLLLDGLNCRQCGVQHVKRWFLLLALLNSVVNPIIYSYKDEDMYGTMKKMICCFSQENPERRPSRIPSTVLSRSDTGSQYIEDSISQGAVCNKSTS

C57BL/6J mice = experiment: Fear extinction paradigm (PTSD mouse model); type: in vivo
Source text: Effective PTSD treatments facilitate the disassociation between a traumatic memory and the patient's fear response, making cues for the traumatic memory evoke less of a fear response. This is modeled in the mouse fear extinction paradigm (see FIG. 9A) which takes place over 3 days. On day 1 (fear conditioning), mice are trained to acquire a “traumatic memory,” namely associating the conditioned stimulus (CS, tone) to the unconditioned stimulus (US, foot shock). On day 2 (extinction training), they are trained to forget the traumatic memory association by presenting the CS 6 times (with no US) in a novel environment. On day 3 (extinction recall), the mice are “asked” if that tone (CS) still elicits a fearful response, as measured by the time spent freezing when the tone is presented. Less time freezing means better extinction recall. Drugs that improve extinction recall reduce freezing time on day 3, and, therefore, show potential as a PTSD treatment.
Methods: Cued fear conditioning was performed in C57BL/6J mice. On day 1, animals were placed in the chambers and presented with a training session (CS-US pairing). The training consisted of a 2-minute habituation followed by a 30-second, 80 dB tone; during the last 2 seconds of the tone animals received a 1 mA foot shock. This US-CS procedure occurred once for a total of one paired presentation of tone and shock. Freezing behavior (immobility) was recorded in 5-10-see intervals during the session. Percent baseline freezing behavior was determined in the 2-minute habituation period. On day 3, animals were placed in context B, in which tactile and odor cues differed from context A. Following a 2 minute acclimation period animals received 4×30 sec presentations of the CS (tone) in the absence of the US (footshock), with a 45 sec interval between presentations. Freezing was recorded in 5-10-see intervals to measure baseline freezing response to the altered context, and freezing response to each tone cue presentation. […] On day 4 (Post-Extinction Testing in Drug-Free State), animals were placed in Context B. Following a 2 min acclimation period, animals received 4×30 sec extinction tone duration presentations of the CS (tone) in the absence of the US (footshock), with a 45 sec interval between presentations. Freezing was recorded in 5-10-see intervals to measure baseline freezing response to the altered context, and freezing response to each tone cue presentation.

T1 sequence (P31652 whole entry): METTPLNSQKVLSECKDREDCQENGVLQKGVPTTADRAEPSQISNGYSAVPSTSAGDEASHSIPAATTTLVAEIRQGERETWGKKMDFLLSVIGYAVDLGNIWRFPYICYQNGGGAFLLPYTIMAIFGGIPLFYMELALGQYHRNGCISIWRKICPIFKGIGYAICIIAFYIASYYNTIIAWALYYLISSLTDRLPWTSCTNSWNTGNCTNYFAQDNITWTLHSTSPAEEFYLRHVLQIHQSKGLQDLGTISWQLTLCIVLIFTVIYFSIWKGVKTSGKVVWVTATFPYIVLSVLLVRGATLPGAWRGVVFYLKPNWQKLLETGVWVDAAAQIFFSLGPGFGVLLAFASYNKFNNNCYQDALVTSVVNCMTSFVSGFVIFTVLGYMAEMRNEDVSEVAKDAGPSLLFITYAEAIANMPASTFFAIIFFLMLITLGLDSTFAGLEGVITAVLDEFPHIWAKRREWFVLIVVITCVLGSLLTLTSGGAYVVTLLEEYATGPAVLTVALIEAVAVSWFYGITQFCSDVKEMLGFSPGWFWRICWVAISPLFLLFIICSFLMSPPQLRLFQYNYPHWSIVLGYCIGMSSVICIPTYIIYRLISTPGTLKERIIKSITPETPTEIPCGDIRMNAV

How did the Ki [1] turn out when `CNC(C)C(=O)c1ccc2c(c1)OCO2` (centres unmarked) [methylone, 3,4-methylenedioxy-N-methylcathinone] was run?
The Ki was 4.15 µM.

What about the activity at 1 µM (168 GPCRs [2]) of the same compound?
Its activity at 1 µM is -6.9%.

And the activity at 10 µM (168 GPCRs [3]; GPCR PTGER3, Antagonist mode, 10 uM)?
Its activity at 10 µM is -5.7%.

And the activity at 1 µM (168 GPCRs [3]; PTGER3, Antagonist, 1 uM)?
Its activity at 1 µM is 8.2%.

And the activity at 10 µM (168 GPCRs [4])?
The activity at 10 µM was roughly 32%.

And the activity at 1 µM (168 GPCRs [5])?
Its activity at 1 µM is 6.7%.

And the activity at 1 µM (168 GPCRs [6]; 1 uM)?
The activity at 1 µM was roughly -8%.

What about the activity at 10 µM (168 GPCRs [6]; 10 uM) of the same compound?
Its activity at 10 µM is -3.3%.

And the activity at 10 µM (168 GPCRs [7])?
Its activity at 10 µM is roughly 3%.

What about the activity at 10 µM (168 GPCRs [8]) of the same compound?
Its activity at 10 µM is roughly 1%.

And the activity at 10 µM (168 GPCRs [9])?
The activity at 10 µM was -2.2%.

And the activity at 10 µM (168 GPCRs [10])?
The activity at 10 µM was -16.2%.

What about the activity at 1 µM (168 GPCRs [11]) of the same compound?
Its activity at 1 µM is roughly 19%.

What about the “fear extinction training on day 3” value (C57BL/6J mice; Example 35, all doses (10, 20, 30 mg/kg IP)) of the same compound?
Its value is “significantly improved fear extinction training”.

And the “effect on fear extinction training and testing” value (C57BL/6J mice; Example 35, methylone 30 mg/kg IP 30 min before extinction training on day 3)?
The value was “rapid, robust and long-lasting beneficial effect”.

And the “enhancement of fear extinction recall vs saline” value (C57BL/6J mice; methylone 30 mg/kg IP 30 min before extinction training, day 3)?
The value was roughly 60%.

What about the “locomotion during testing session” value (C57BL/6J mice; methylone 30 mg/kg IP, day 3) of the same compound?
Its value is “no differences between groups in locomotion”.
